Results from US7732444B2, “2-(amino-substituted)-4-aryl pyrimidines and related compounds useful for treating inflammatory diseases” (Millennium Pharmaceuticals, Inc., priority 2004, dated 2010).

Target: T1, full length PKC θ (Homo sapiens, UniProt Q04759)
T1 construct: 15 μL of full length PKC θ (Panvera Corporation); purchased Panvera Corporation
Assay: PKC-theta isoform inhibition assay (HTRF, 384 well plate)
Type: biochemical
Conditions: full length PKC θ at 27 pM, peptide substrate 300 nM + 3 μM ATP, HTRF readout
Method: An in vitro assay for detecting and measuring inhibition activity against PKC-theta isoform by candidate pharmacological agents is useful for evaluating and selecting a compound that modulates PKC-theta isoform. An IC50 value can be calculated after running the assay. Following is an assay protocol for measuring PKC-theta isoform.
Per well of a 384 well plate, compounds at various concentrations in 5 μL of 20% DMSO were pre-incubated for about 30 minutes at about 25° C. with 15 μL of full length PKC θ (Panvera Corporation) at 27 pM in an assay buffer (25 mM Hepes, pH 7.5, 5 mM DTT, 10 mM MgCl2, 10 mM 2-glycerophosphate, 12.5 μg/mL 1,2-dioleoyl-rac-glycerol, 10 μg/mL L-α-phosphatidyl-L-serine, 0.1% Bovine Serum Albumin). 10 μL of peptide substrate (biotin-(CH2)6— RFARKGSLRQKNV —CONH2) at 300 nM+3 μM ATP were added to each well and incubated for about 1 hour before quenching with 10 μL of 250 mM EDTA. 40 μL of detection buffer (25 mM Hepes, pH 7.5, 100 mM KF, 0.1% Bovine Serum Albumin, 0.01% Tween20) containing 2 nM anti-phospho antibody 2B9 (MBL International) labeled with europium cryptate (Cis-Bio International) and 0.0064 μg/mL streptavidin-allophycocyanin (Prozyme) was added to each well and incubated for two hours. Signal was then read on a Discovery HTRF (Packard).

T1 sequence (Q04759 whole entry): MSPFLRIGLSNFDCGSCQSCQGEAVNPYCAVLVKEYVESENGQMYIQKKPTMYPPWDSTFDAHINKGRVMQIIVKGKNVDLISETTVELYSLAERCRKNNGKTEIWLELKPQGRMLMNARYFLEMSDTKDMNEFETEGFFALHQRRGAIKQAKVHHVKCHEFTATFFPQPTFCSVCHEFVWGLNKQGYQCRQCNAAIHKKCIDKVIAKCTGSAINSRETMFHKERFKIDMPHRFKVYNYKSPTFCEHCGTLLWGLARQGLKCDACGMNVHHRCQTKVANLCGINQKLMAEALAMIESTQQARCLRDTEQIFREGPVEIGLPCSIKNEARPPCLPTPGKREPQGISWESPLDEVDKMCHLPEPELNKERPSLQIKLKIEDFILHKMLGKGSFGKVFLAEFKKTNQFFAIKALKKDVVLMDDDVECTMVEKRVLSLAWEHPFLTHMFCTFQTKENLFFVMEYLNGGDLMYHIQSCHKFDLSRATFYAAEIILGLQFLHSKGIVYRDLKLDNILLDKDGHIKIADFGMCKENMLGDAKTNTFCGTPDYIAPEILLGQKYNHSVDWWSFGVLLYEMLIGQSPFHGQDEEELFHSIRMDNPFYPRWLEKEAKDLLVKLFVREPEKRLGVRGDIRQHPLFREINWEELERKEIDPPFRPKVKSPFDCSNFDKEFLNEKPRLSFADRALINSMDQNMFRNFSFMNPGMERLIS

IC50, < 0.1 µM:
CCN(CCCN)Cc1cccc(-c2ccnc(NCCc3ccc(O)cc3)n2)c1 [Compound 1, (4-{2-[4-(3-{[(3-Amino-propyl)-ethyl-amino]-methyl}-phenyl)-pyrimidin-2-ylamino]-ethyl}-phenol)]
CS(=O)(=O)N(CCCN)Cc1cccc(-c2ccnc(NCCc3ccc(O)cc3)n2)c1 [Compound 2, N-(3-Amino-propyl)-N-(3-{2-[2-(4-hydroxy-phenyl)-ethylamino]-pyrimidin-4-yl}-benzyl)-methanesulfonamide]
CS(=O)(=O)N(CCCN)Cc1cccc(-c2ccnc(NCCc3ccc(N)cc3)n2)c1 [Compound 5, N-(3-{2-[2-(4-Amino-phenyl)-ethylamino]-pyrimidin-4-yl}-benzyl)-N-(3-amino-propyl)-methanesulfonamide]
CS(=O)(=O)N(CCCN)Cc1cccc(-c2ccnc(NCCc3ccc(O)c(O)c3)n2)c1 [Compound 6, N-(3-Amino-propyl)-N-(3-{2-[2-(3,4-dihydroxy-phenyl)-ethylamino]-pyrimidin-4-yl}-benzyl)-methanesulfonamide]
COc1ccc(CCNc2nccc(-c3cccc(CN(CCCN)S(C)(=O)=O)c3)n2)cc1O [Compound 8, N-(3-Amino-propyl)-N-(3-{2-[2-(3-hydroxy-4-methoxy-phenyl)-ethylamino]-pyrimidin-4-yl}-benzyl)-methanesulfonamide]
CS(=O)(=O)N(CCCN)Cc1cccc(-c2ccnc(NCCc3ccc(O)c([N+](=O)[O-])c3)n2)c1 [Compound 22, N-(3-Amino-propyl)-N-(3-{2-[2-(4-hydroxy-3-nitro-phenyl)-ethylamino]-pyrimidin-4-yl}-benzyl)-methanesulfonamide]
CS(=O)(=O)N(CCCN)Cc1cccc(-c2ccnc(NCCc3ccc(O)c(Cl)c3)n2)c1 [Compound 24, N-(3-Amino-propyl)-N-(3-{2-[2-(3-chloro-4-hydroxy-phenyl)-ethylamino]-pyrimidin-4-yl}-benzyl)-methanesulfonamide]
CS(=O)(=O)N(CCCN)Cc1cccc(-c2ccnc(NCCc3cccc(O)c3)n2)c1 [Compound 26, N-(3-Amino-propyl)-N-(3-{2-[2-(3-hydroxy-phenyl)-ethylamino]-pyrimidin-4-yl}-benzyl)-methanesulfonamide]
CS(=O)(=O)N(CCCN)Cc1cccc(-c2ccnc(NCCc3cc(Cl)c(O)c(Cl)c3)n2)c1 [Compound 29, N-(3-Amino-propyl)-N-(3-{2-[2-(3,5-dichloro-4-hydroxy-phenyl)-ethylamino]-pyrimidin-4-yl}-benzyl)-methanesulfonamide]
CS(=O)(=O)N(CCCN)Cc1cccc(-c2ccnc(NCCc3ccc(O)c(Br)c3)n2)c1 [Compound 36, N-(3-Amino-propyl)-N-(3-{2-[2-(3-bromo-4-hydroxy-phenyl)-ethylamino]-pyrimidin-4-yl}-benzyl)-methanesulfonamide]
Oc1ccc(CCNc2nccc(-c3cccc(NC4CCNCC4)c3)n2)cc1 [Compound 38, 4-(2-{4-[3-(Piperidin-4-ylamino)-phenyl]-pyrimidin-2-ylamino}-ethyl)-phenol]
COc1cc(CCNc2nccc(-c3cccc(NC4CCNCC4)c3)n2)ccc1O [Compound 40, 2-Methoxy-4-(2-{4-[3-(piperidin-4-ylamino)-phenyl]-pyrimidin-2-ylamino}-ethyl)-phenol]
Oc1ccc(CCNc2nccc(-c3cccc(NC4CCNCC4)c3)n2)cc1Cl [Compound 45, 2-Chloro-4-(2-{4-[3-(piperidin-4-ylamino)-phenyl]-pyrimidin-2-ylamino}-ethyl)-phenol]
Oc1c(Cl)cc(CCNc2nccc(-c3cccc(NC4CCNCC4)c3)n2)cc1Cl [Compound 48, 2,6-Dichloro-4-(2-{4-[3-(piperidin-4-ylamino)-phenyl]-pyrimidin-2-ylamino}-ethyl)-phenol]
Oc1cccc(CCNc2nccc(-c3cccc(NC4CCNCC4)c3)n2)c1 [Compound 49, 3-(2-{4-[3-(Piperidin-4-ylamino)-phenyl]-pyrimidin-2-ylamino}-ethyl)-phenol]
Oc1ccc(CCNc2nccc(-c3cccc(NC4CCNCC4)c3)n2)cc1Br [Compound 50, 2-Bromo-4-(2-{4-[3-(piperidin-4-ylamino)-phenyl]-pyrimidin-2-ylamino}-ethyl)-phenol]
Oc1ccc(CCNc2nccc(-c3cccc(NC4CCCNC4)c3)n2)cc1 (stereo not shown) [Compound 53, 4-(2-{4-[3-(Piperidin-3-ylamino)-phenyl]-pyrimidin-2-ylamino}-ethyl)-phenol]
Oc1ccc(CCNc2nccc(-c3cccc(NC4CCCNC4)c3)n2)cc1Cl (stereo not shown) [Compound 54, 2-Chloro-4-(2-{4-[3-(piperidin-3-ylamino)-phenyl]-pyrimidin-2-ylamino}-ethyl)-phenol]
Oc1ccc(CCNc2nccc(-c3cccc(NC4CCNC4)c3)n2)cc1 (stereo not shown) [Compound 55, 4-(2-{4-[3-(Pyrrolidin-3-ylamino)-phenyl]-pyrimidin-2-ylamino}-ethyl)-phenol]
CS(=O)(=O)N(CCCNC(=O)c1ccccn1)Cc1cccc(-c2ccnc(NCCc3ccc(O)cc3)n2)c1 [Compound 60, Pyridine-2-carboxylic acid {3-[(3-{2-[2-(4-hydroxy-phenyl)-ethylamino]-pyrimidin-4-yl}-benzyl)-methanesulfonyl-amino]-propyl}-amide]
Cc1ncccc1C(=O)NCCCN(Cc1cccc(-c2ccnc(NCCc3ccc(O)cc3)n2)c1)S(C)(=O)=O [Compound 62]
CS(=O)(=O)N(CCCNS(=O)(=O)Cc1ccccc1)Cc1cccc(-c2ccnc(NCCc3ccc(O)cc3)n2)c1 [Compound 64, N-{3-[(3-{2-[2-(4-Hydroxy-phenyl)-ethylamino]-pyrimidin-4-yl}-benzyl)-methanesulfonyl-amino]-propyl}-C-phenyl-methanesulfonamide]
CS(=O)(=O)N(CCCNS(=O)(=O)c1ccccc1)Cc1cccc(-c2ccnc(NCCc3ccc(O)cc3)n2)c1 [Compound 65, N-{3-[(3-{2-[2-(4-Hydroxy-phenyl)-ethylamino]-pyrimidin-4-yl}-benzyl)-methanesulfonyl-amino]-propyl}-benzenesulfonamide]
O=C(NCC1CCNC1)c1cccc(-c2ccnc(NCCc3ccc(O)cc3)n2)c1 (stereo not shown) [Compound 67, 3-{2-[2-(4-Hydroxy-phenyl)-ethylamino]-pyrimidin-4-yl}-N-pyrrolidin-3-ylmethyl-benzamide]
NCCCNC(=O)c1cccc(-c2ccnc(NCCc3ccc(O)cc3)n2)c1 [Compound 68, N-(3-Amino-propyl)-3-{2-[2-(4-hydroxy-phenyl)-ethylamino]-pyrimidin-4-yl}-benzamide]
CCN(Cc1cccnc1)c1cccc(-c2ccnc(NCCc3ccc(O)cc3)n2)c1 [Compound 80, 4-(2-{4-[3-(Ethyl-pyridin-3-ylmethyl-amino)-phenyl]-pyrimidin-2-ylamino}-ethyl)-phenol]
CN1CCN(Cc2cccc(-c3ccnc(NCCc4ccc(O)cc4)n3)c2)CC1 [Compound 81, 4-(2-{4-[3-(4-Methyl-piperazin-1-ylmethyl)-phenyl]-pyrimidin-2-ylamino}-ethyl)-phenol]
CC(c1cccc(-c2ccnc(NCCc3ccc(O)cc3)n2)c1)N(CCCN)S(C)(=O)=O (stereo not shown) [Compound 104]
